pEC50, pIC50: −log10 of the molar value. Where a SMILES comes first, the peptide text is derived from it. [ ]: non-standard residue; d: D form. Cha = N[C@@H](CC1CCCCC1)C(=O)O; Aib = CC(C)(N)C(=O)O
Columns and labels:
[1] = molecular target: T1, Neuropeptide Y receptor type 2 (Homo sapiens, UniProt P49146); test: Displacement of [125I]peptide YY from human Y2 receptor expressed in CHO cell membranes after 60 mins by TopCount scintillation counting analysis
T1 sequence (P49146 whole entry): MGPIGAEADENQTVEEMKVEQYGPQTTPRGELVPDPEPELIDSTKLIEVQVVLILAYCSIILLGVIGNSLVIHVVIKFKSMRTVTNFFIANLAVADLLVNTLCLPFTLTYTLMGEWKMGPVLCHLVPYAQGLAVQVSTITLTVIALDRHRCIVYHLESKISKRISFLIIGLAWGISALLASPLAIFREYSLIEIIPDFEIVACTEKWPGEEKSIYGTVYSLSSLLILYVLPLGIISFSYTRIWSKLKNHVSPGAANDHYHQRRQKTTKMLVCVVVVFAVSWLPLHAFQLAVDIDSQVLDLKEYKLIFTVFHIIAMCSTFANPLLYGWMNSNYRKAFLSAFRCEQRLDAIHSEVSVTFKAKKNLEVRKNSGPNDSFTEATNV

[2] = molecular target: T1, Neuropeptide Y receptor type 2; test: Agonist activity at human Y2 receptor expressed in CHO cell membranes after 120 mins by [35S]GTPgammaS binding assay; assay type: functional
Mus musculus = test: Anorectic activity in C57BL/6J mouse assessed as inhibition of food intake at 1 mg/kg/day, sc administered by infusion as continuous dosing for 3 days relative to 1 mg/kg/day PYY (3 to 36 residues); assay type: functional; details: 72 h

Compound	pIC50 [1]	pEC50 [2]	inhibition in vivo at 1 mg/kg/day (Mus musculus) [%]
CCCC[C@H](NC(=O)[C@H](CC(N)=O)NC(=O)[C@H](CC1CCCCC1)NC(=O)[C@H](CC1CCCCC1)NC(=O)[C@H](Cc1cnc[nH]1)NC(=O)[C@H](CCCNC(=N)N)NC(=O)[C@H]1CCCN1C(=O)[C@H](CO)NC(C)=O)C(=O)NC(C)(C)C(=O)N[C@H](C(=O)N[C@@H](CCCNC(=N)N)C(=O)N[C@@H](CCC(N)=O)C(=O)N[C@@H](CCCNC(=N)N)C(=O)N[C@@H](CC1CCCCC1)C(N)=O)[C@@H](C)O	8.89	9.68	
CC(=O)N[C@@H](CO)C(=O)N1CCC[C@@H]1C(=O)N[C@@H](CCCNC(=N)N)C(=O)N[C@@H](Cc1cnc[nH]1)C(=O)N[C@@H](CC1CCCCC1)C(=O)N[C@@H](CC1CCCCC1)C(=O)N[C@@H](CC(N)=O)C(=O)N[C@@H](CC(C)C)C(=O)NC(C)(C)C(=O)N[C@H](C(=O)N[C@@H](CCCNC(=N)N)C(=O)N[C@@H](CCC(N)=O)C(=O)N[C@@H](CCCNC(=N)N)C(=O)N[C@@H](CC1CCCCC1)C(N)=O)[C@@H](C)O (Ac-S[dP]RH[Cha][Cha]NL[Aib]TRQR[Cha]-NH2)	8.82	9.21	33
CC(=O)N[C@@H](CO)C(=O)N1CCC[C@@H]1C(=O)N[C@@H](CCCNC(=N)N)C(=O)N[C@@H](Cc1cnc[nH]1)C(=O)N[C@@H](Cc1ccc(O)cc1)C(=O)N[C@@H](CC1CCCCC1)C(=O)N[C@@H](CC(N)=O)C(=O)N[C@@H](CC(C)C)C(=O)NC(C)(C)C(=O)N[C@H](C(=O)N[C@@H](CCCNC(=N)N)C(=O)N[C@@H](CCC(N)=O)C(=O)N[C@@H](CCCNC(=N)N)C(=O)N[C@@H](CC1CCCCC1)C(N)=O)[C@@H](C)O	8.28	8.60	
CC(=O)N[C@@H](CO)C(=O)N1CCC[C@@H]1C(=O)N[C@@H](CCCNC(=N)N)C(=O)N[C@@H](Cc1cnc[nH]1)C(=O)N[C@@H](CC1CCCCC1)C(=O)N[C@@H](Cc1ccncc1)C(=O)N[C@@H](CC(N)=O)C(=O)N[C@@H](CC(C)C)C(=O)NC(C)(C)C(=O)N[C@H](C(=O)N[C@@H](CCCNC(=N)N)C(=O)N[C@@H](CCC(N)=O)C(=O)N[C@@H](CCCNC(=N)N)C(=O)N[C@@H](CC1CCCCC1)C(N)=O)[C@@H](C)O	8.60	9.12	41
CC(=O)N[C@@H](CO)C(=O)N1CCC[C@@H]1C(=O)N[C@@H](CCCNC(=N)N)C(=O)N[C@@H](Cc1cnc[nH]1)C(=O)N[C@@H](CCC(N)=O)C(=O)N[C@@H](CC1CCCCC1)C(=O)N[C@@H](CC(N)=O)C(=O)N[C@@H](CC(C)C)C(=O)NC(C)(C)C(=O)N[C@H](C(=O)N[C@@H](CCCNC(=N)N)C(=O)N[C@@H](CCC(N)=O)C(=O)N[C@@H](CCCNC(=N)N)C(=O)N[C@@H](CC1CCCCC1)C(N)=O)[C@@H](C)O	8.06	8.36	
CC(=O)N[C@@H](CO)C(=O)N1CCC[C@@H]1C(=O)N[C@@H](CCCNC(=N)N)C(=O)N[C@@H](Cc1cnc[nH]1)C(=O)N[C@@H](CC1CCCCC1)C(=O)N[C@@H](CC1CCCCC1)C(=O)N[C@@H](CC(N)=O)C(=O)N[C@@H](CCCCN)C(=O)NC(C)(C)C(=O)N[C@H](C(=O)N[C@@H](CCCNC(=N)N)C(=O)N[C@@H](CCC(N)=O)C(=O)N[C@@H](CCCNC(=N)N)C(=O)N[C@@H](CC1CCCCC1)C(N)=O)[C@@H](C)O	9.26	9.70	79
CC(=O)N[C@@H](CO)C(=O)N1CCC[C@@H]1C(=O)N[C@@H](CCCNC(=N)N)C(=O)N[C@@H](Cc1cnc[nH]1)C(=O)N[C@@H](Cc1cnc[nH]1)C(=O)N[C@@H](CC1CCCCC1)C(=O)N[C@@H](CC(N)=O)C(=O)N[C@@H](CC(C)C)C(=O)NC(C)(C)C(=O)N[C@H](C(=O)N[C@@H](CCCNC(=N)N)C(=O)N[C@@H](CCC(N)=O)C(=O)N[C@@H](CCCNC(=N)N)C(=O)N[C@@H](CC1CCCCC1)C(N)=O)[C@@H](C)O	7.96	8.42	
CC(=O)N[C@@H](CO)C(=O)N1CCC[C@@H]1C(=O)N[C@@H](CCCNC(=N)N)C(=O)N[C@@H](Cc1cnc[nH]1)C(=O)N[C@@H](Cc1ccncc1)C(=O)N[C@@H](CC1CCCCC1)C(=O)N[C@@H](CC(N)=O)C(=O)N[C@@H](CC(C)C)C(=O)NC(C)(C)C(=O)N[C@H](C(=O)N[C@@H](CCCNC(=N)N)C(=O)N[C@@H](CCC(N)=O)C(=O)N[C@@H](CCCNC(=N)N)C(=O)N[C@@H](CC1CCCCC1)C(N)=O)[C@@H](C)O	8.22	8.74	
CC(=O)N[C@@H](CO)C(=O)N1CCC[C@@H]1C(=O)N[C@@H](CCCNC(=N)N)C(=O)N[C@@H](Cc1cnc[nH]1)C(=O)N[C@@H](CC1CCCCC1)C(=O)N[C@@](C)(CC(C)C)C(=O)N[C@@H](CC(N)=O)C(=O)N[C@@H](CC(C)C)C(=O)NC(C)(C)C(=O)N[C@H](C(=O)N[C@@H](CCCNC(=N)N)C(=O)N[C@@H](CCC(N)=O)C(=O)N[C@@H](CCCNC(=N)N)C(=O)N[C@@H](CC1CCCCC1)C(N)=O)[C@@H](C)O	9.03	9.39	59
CC(=O)N[C@@H](CO)C(=O)N1CCC[C@@H]1C(=O)N[C@@H](CCCNC(=N)N)C(=O)N[C@@H](Cc1cnc[nH]1)C(=O)N[C@@H](CC1CCCCC1)C(=O)NC(C)(C)C(=O)N[C@@H](CC(N)=O)C(=O)N[C@@H](CC(C)C)C(=O)NC(C)(C)C(=O)N[C@H](C(=O)N[C@@H](CCCNC(=N)N)C(=O)N[C@@H](CCC(N)=O)C(=O)N[C@@H](CCCNC(=N)N)C(=O)N[C@@H](CC1CCCCC1)C(N)=O)[C@@H](C)O	8.85	9.18	59
CC(=O)N[C@@H](CO)C(=O)N1CCC[C@@H]1C(=O)N[C@@H](CCCNC(=N)N)C(=O)N[C@@H](Cc1cnc[nH]1)C(=O)N[C@@H](CC1CCCCC1)C(=O)N[C@@H](CC1CCCCC1)C(=O)N[C@@H](CC(N)=O)C(=O)N[C@@H](Cc1ccncc1)C(=O)NC(C)(C)C(=O)N[C@H](C(=O)N[C@@H](CCCNC(=N)N)C(=O)N[C@@H](CCC(N)=O)C(=O)N[C@@H](CCCNC(=N)N)C(=O)N[C@@H](CC1CCCCC1)C(N)=O)[C@@H](C)O	8.52	9.32	
CC(=O)N[C@@H](CO)C(=O)N1CCC[C@@H]1C(=O)N[C@@H](CCCNC(=N)N)C(=O)N[C@@H](Cc1cnc[nH]1)C(=O)NC(C)(C)C(=O)N[C@@H](CC1CCCCC1)C(=O)N[C@@H](CC(N)=O)C(=O)N[C@@H](CC(C)C)C(=O)NC(C)(C)C(=O)N[C@H](C(=O)N[C@@H](CCCNC(=N)N)C(=O)N[C@@H](CCC(N)=O)C(=O)N[C@@H](CCCNC(=N)N)C(=O)N[C@@H](CC1CCCCC1)C(N)=O)[C@@H](C)O	8.59	8.77	
CC(=O)N[C@@H](CO)C(=O)N1CCC[C@@H]1C(=O)N[C@@H](CCCNC(=N)N)C(=O)N[C@@H](Cc1cnc[nH]1)C(=O)N[C@@H](CC1CCCCC1)C(=O)N[C@@H](CC1CCCCC1)C(=O)N[C@@H](CC(N)=O)C(=O)N[C@@H](CO)C(=O)NC(C)(C)C(=O)N[C@H](C(=O)N[C@@H](CCCNC(=N)N)C(=O)N[C@@H](CCC(N)=O)C(=O)N[C@@H](CCCNC(=N)N)C(=O)N[C@@H](CC1CCCCC1)C(N)=O)[C@@H](C)O	8.64	9.22	
CC(=O)N[C@@H](CO)C(=O)N1CCC[C@@H]1C(=O)N[C@@H](CCCNC(=N)N)C(=O)N[C@@H](Cc1cnc[nH]1)C(=O)N[C@@H](CC1CCCCC1)C(=O)N[C@@H](Cc1cnc[nH]1)C(=O)N[C@@H](CC(N)=O)C(=O)N[C@@H](CC(C)C)C(=O)NC(C)(C)C(=O)N[C@H](C(=O)N[C@@H](CCCNC(=N)N)C(=O)N[C@@H](CCC(N)=O)C(=O)N[C@@H](CCCNC(=N)N)C(=O)N[C@@H](CC1CCCCC1)C(N)=O)[C@@H](C)O	8.55	9.00	
CC(=O)N[C@@H](CO)C(=O)N1CCC[C@@H]1C(=O)N[C@@H](CCCNC(=N)N)C(=O)N[C@@H](Cc1cnc[nH]1)C(=O)N[C@@H](CC1CCCCC1)C(=O)N[C@@H](CC1CCCCC1)C(=O)N[C@@H](CC(N)=O)C(=O)N[C@@H](CCCN)C(=O)NC(C)(C)C(=O)N[C@H](C(=O)N[C@@H](CCCNC(=N)N)C(=O)N[C@@H](CCC(N)=O)C(=O)N[C@@H](CCCNC(=N)N)C(=O)N[C@@H](CC1CCCCC1)C(N)=O)[C@@H](C)O	8.92	10.17	22
CC(=O)N[C@@H](CO)C(=O)N1CCC[C@@H]1C(=O)N[C@@H](CCCNC(=N)N)C(=O)N[C@@H](CCC(N)=O)C(=O)N[C@@H](CC1CCCCC1)C(=O)N[C@@H](CC1CCCCC1)C(=O)N[C@@H](CC(N)=O)C(=O)N[C@@H](CC(C)C)C(=O)NC(C)(C)C(=O)N[C@H](C(=O)N[C@@H](CCCNC(=N)N)C(=O)N[C@@H](CCC(N)=O)C(=O)N[C@@H](CCCNC(=N)N)C(=O)N[C@@H](CC1CCCCC1)C(N)=O)[C@@H](C)O	8.96	9.38	55

— ChEMBL document CHEMBL4052740, “Potent antiobesity effect of a short-length peptide YY-analogue continuously administered in mice” (Bioorg Med Chem Lett, 2017)
